Measured values reported in ChEMBL document CHEMBL1201862, “PubChem BioAssay data set” (2004).
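How tested: cells in 96-well plates exposed to compound for 48 hours at five concentrations. The concentration for 50% growth inhibition is given as GI50.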 Active and inactive are the calls of the source. Cut-off read from the data, not from the text of the source: active = GI50 up to about 1.1 µM and inactive = higher.

Key:
Test in all cases: NCI-60 cell line screen, 48 h
[1] = tested on: A498
[2] = tested on: CAKI-1
[3] = tested on: HCC 2998
[4] = tested on: HCT-116
[5] = tested on: HOP-62
[6] = tested on: HOP-92
[7] = tested on: KM12
[8] = tested on: NCI-H226
[9] = tested on: NCI-H522
[10] = tested on: OVCAR-4
[11] = tested on: OVCAR-8
[12] = tested on: SF-295
[13] = tested on: SNB-19
[14] = tested on: UACC-257
[15] = tested on: UACC-62
[16] = tested on: UO-31
[17] = tested on: SK-MEL-2
[18] = tested on: CCRF-CEM

| Structure (SMILES) | GI50 [1] | GI50 [2] | GI50 [3] | GI50 [4] | GI50 [5] | GI50 [6] | GI50 [7] | GI50 [8] | GI50 [9] | GI50 [10] | GI50 [11] | GI50 [12] | GI50 [13] | GI50 [14] | GI50 [15] | GI50 [16] | GI50 [17] | GI50 [18] |
| --- | --- | --- | --- | --- | --- | --- | --- | --- | --- | --- | --- | --- | --- | --- | --- | --- | --- | --- |
| CC(C)c1ccc(/C=C/c2cc(C(=O)NNC(=O)NC3CCCCC3)nc(S)n2)cc1 | > 100 µM (inactive) | > 100 µM (inactive) | > 100 µM (inactive) | > 100 µM (inactive) | > 100 µM (inactive) | > 100 µM (inactive) | > 100 µM (inactive) | > 100 µM (inactive) | > 100 µM (inactive) | > 100 µM (inactive) | > 100 µM (inactive) | > 100 µM (inactive) | > 100 µM (inactive) | > 100 µM (inactive) | > 100 µM (inactive) | > 100 µM (inactive) |  |  |
| C/N=C(\S)N/N=C/C(C)=N/N/C(S)=N/C | 48.2 µM (inactive) |  | > 100 µM (inactive) | 0.0489 µM (active) | > 100 µM (inactive) |  | > 100 µM (inactive) |  | > 100 µM (inactive) |  |  | > 100 µM (inactive) | > 100 µM (inactive) |  | > 100 µM (inactive) | > 100 µM (inactive) | > 100 µM (inactive) |  |
| C[C@@H](C1CCC2C3C(=CC(=O)[C@@]21C)[C@H](C)[C@]1(CCC(=O)O1)C1OC31)[C@H]1C[C@]2(C)O[C@@](C)(O1)OC2(C)C (stereo partly specified) | > 100 µM (inactive) | > 100 µM (inactive) |  | > 100 µM (inactive) |  | > 100 µM (inactive) |  |  | > 100 µM (inactive) |  | > 100 µM (inactive) | > 100 µM (inactive) | > 100 µM (inactive) |  | > 100 µM (inactive) | > 100 µM (inactive) |  | > 100 µM (inactive) |
| CCC1(Br)C(=O)NC(=O)N(C2CC(O)C(CO)O2)C1N=[N+]=[N-] (stereo unspecified) | > 100 µM (inactive) | > 100 µM (inactive) | > 100 µM (inactive) |  | > 100 µM (inactive) | > 100 µM (inactive) |  |  | 94.4 µM (inactive) | > 100 µM (inactive) | > 100 µM (inactive) | > 100 µM (inactive) | > 100 µM (inactive) | 83.6 µM (inactive) | > 100 µM (inactive) | > 100 µM (inactive) | > 100 µM (inactive) | 44 µM (inactive) |
| Cc1cc(NS(=O)(=O)c2ccc(Nc3c4ccccc4nc4c(C(=O)Nc5ccc(S(=O)(=O)N=C(N)N)cc5)cccc34)cc2)no1 | > 100 µM (inactive) | > 100 µM (inactive) | > 100 µM (inactive) | > 100 µM (inactive) | > 100 µM (inactive) | > 100 µM (inactive) | > 100 µM (inactive) |  | > 100 µM (inactive) | > 100 µM (inactive) | > 100 µM (inactive) | > 100 µM (inactive) | > 100 µM (inactive) | > 100 µM (inactive) | > 100 µM (inactive) | > 100 µM (inactive) | > 100 µM (inactive) | > 100 µM (inactive) |
| O/N=C1\C(=C\c2ccc3c(c2)OCCO3)CCCC1C(NO)c1ccc2c(c1)OCCO2 (stereo unspecified) | 16 µM (inactive) | 32.4 µM (inactive) | 22.6 µM (inactive) | 18.7 µM (inactive) | 22 µM (inactive) | 23.3 µM (inactive) | 21.4 µM (inactive) |  | 13.8 µM (inactive) | 30.1 µM (inactive) | 31.4 µM (inactive) | 31 µM (inactive) | 38.7 µM (inactive) | 20.4 µM (inactive) | 16.5 µM (inactive) | 26.8 µM (inactive) |  | 16.6 µM (inactive) |
